Data reported in ChEMBL document CHEMBL5260832, “Hepatoprotective natural triterpenoids” (Eur J Med Chem, 2018).

Assays:
HepG2 [1] = test: Hepatoprotective activity against H2O2-induced human HepG2 cells assessed as increase in AST level at 186.00 uM; type: functional
HepG2 [2] = test: Hepatoprotective activity against H2O2-induced human HepG2 cells assessed as increase in ALT level; type: functional
Mus musculus [3] = test: Hepatoprotective activity in mouse model of D-GaIN/LPS-induced liver injury assessed as inhibition of sALT level secretion at 100 mg/kg, po relative to control; type: functional
Mus musculus [4] = test: Hepatoprotective activity in mouse model of D-GaIN/LPS-induced liver injury assessed as inhibition of sAST secretion at 100 mg/kg, po relative to control; type: functional
Hepatocyte [5] = test: Hepatoprotective activity against D-GaIN-induced toxicity in mouse hepatocytes
Hepatocyte [6] = test: Hepatoprotective activity against D-GaIN-induced toxicity in mouse hepatocyte relative to control; type: functional, cell-based
Hepatocyte [7] = test: Hepatoprotective activity against CCL4-induced rat hepatocyte toxicity assessed as decrease in IL-1beta level at 0.1 mg/mL relative to control; type: functional; set-up: scale not given: the % may be the effect or the level left
Mus musculus [8] = test: Hepatoprotective activity against CCl4-induced mouse chronic liver injury model assessed as decreased AP level at 15 mg/kg, ip relative to control; type: functional; set-up: scale not given: the % may be the effect or the level left
Mus musculus [9] = test: Hepatoprotective activity against CCl4-induced mouse acute liver injury model assessed as decreased AP level at 15 mg/kg, ip relative to control; type: functional; set-up: scale not given: the % may be the effect or the level left
Mus musculus [10] = test: Hepatoprotective activity against CCl4-induced mouse chronic liver injury model assessed as decreased LDH level at 15 mg/kg, ip relative to control; type: functional; set-up: scale not given: the % may be the effect or the level left
Mus musculus [11] = test: Hepatoprotective activity against CCl4-induced mouse acute liver injury model assessed as decreased LDH level at 15 mg/kg, ip relative to control; type: functional; set-up: scale not given: the % may be the effect or the level left
Mus musculus [12] = test: Hepatoprotective activity against CCl4-induced mouse acute liver injury model assessed as decreased sGOT level at 15 mg/kg, ip relative to control; type: functional; set-up: scale not given: the % may be the effect or the level left
Mus musculus [13] = test: Hepatoprotective activity against CCl4-induced mouse acute liver injury model assessed as decreased sGPT level at 15 mg/kg, ip relative to control; type: functional; set-up: scale not given: the % may be the effect or the level left
Mus musculus [14] = test: Hepatoprotective activity against CCl4-induced mouse chronic liver injury model assessed as decreased sGOT level at 15 mg/kg, ip relative to control; type: functional; set-up: scale not given: the % may be the effect or the level left
Mus musculus [15] = test: Hepatoprotective activity against CCl4-induced mouse chronic liver injury model assessed as decreased sGPT level at 15 mg/kg, ip relative to control; type: functional; set-up: scale not given: the % may be the effect or the level left
Huh-7 [16] = test: Hepatoprotective activity in human Huh-7 cells assessed as increasing in GSH level; type: functional
Huh-7 [17] = test: Hepatoprotective activity in human Huh-7 cells assessed as reduction in AST level; type: functional; set-up: scale not given: the % may be the effect or the level left
Huh-7 [18] = test: Hepatoprotective activity in human Huh-7 cells assessed as reduction in ALT level; type: functional; set-up: scale not given: the % may be the effect or the level left
Mus musculus [19] = species: Mus musculus; test: Hepatoprotective activity in CCl4-induced toxicity in liver injured mouse assessed as increase in inhibition of liver damage at 50 uM relative to control; type: functional; set-up: scale not given: the % may be the effect or the level left
Mus musculus [20] = species: Mus musculus; test: Hepatoprotective activity in GaIN-induced toxicity in liver injured mouse assessed as increase in inhibition of liver damage at 50 uM relative to control; type: functional; set-up: scale not given: the % may be the effect or the level left
Mus musculus [21] = species: Mus musculus; test: Hepatoprotective activity in mouse model of CCl4-induced liver injury assessed as reduction in AST level at 100 microg/ml (reference value: 5.9 U/mL); type: functional; settings: dose 100 µg/ml
Hepatocyte [22] = test: Hepatoprotective activity against CCL4-induced rat hepatocyte toxicity assessed as increase in SOD level at 0.25 mg/ml (reference value: 125.8 U/L); type: functional
Hepatocyte [23] = test: Hepatoprotective activity against CCL4-induced rat hepatocyte toxicity assessed as decrease in MDA level at 0.25 mg/ml (reference value: 9.22 nmol/mg); type: functional
Hepatocyte [24] = test: Hepatoprotective activity against CCL4-induced rat hepatocyte toxicity assessed as increase in GSH level at 0.25 mg/ml (reference value: 3.7 mg/g); type: functional
Hepatocyte [25] = test: Hepatoprotective activity against CCL4-induced rat hepatocyte toxicity assessed as decrease in ALT level at 0.25 mg/ml (reference value: 119.0 U/L); type: functional
Hepatocyte [26] = test: Hepatoprotective activity against CCL4-induced rat hepatocyte toxicity assessed as decrease in AST level at 0.25 mg/ml (reference value: 243.5 U/L); type: functional
Hepatocyte [27] = test: Hepatoprotective activity against D-GaIN/TNFalpha induced cell death in mouse hepatocytes assessed as cell survival rate at 50 uM relative to control; type: functional
Mus musculus [28] = species: Mus musculus; test: Hepatoprotective activity in mouse liver homogenate assessed as inhibition of iron/ascorbate lipid peroxidation at 5.0 mg/mL relative to control; type: functional; set-up: scale not given: the % may be the effect or the level left
Hepatocyte [29] = test: Hepatoprotective activity against D-GaIN/TNFalpha induced cell death in mouse hepatocytes assessed as cell survival rate at 200 uM relative to control; type: functional
Hepatocyte [30] = test: Hepatoprotective activity against D-GaIN/TNFalpha induced cell death in mouse hepatocytes assessed as cell survival rate at 100 uM relative to control; type: functional

C/C(=C\CC[C@@H](C)[C@H]1CC[C@@]2(C)C3=C(CC[C@]12C)[C@@]1(C)CC[C@H](O)C(C)(C)[C@@H]1CC3=O)C(=O)O
Activity (HepG2 [1]): 24.27 U/L | Activity (HepG2 [2]): 20.95 U/L

C[C@@H]1CC[C@]2(C(=O)O[C@@H]3O[C@H](CO)[C@@H](O)[C@H](O)[C@H]3O)CC[C@]3(C)C(=CC[C@@H]4[C@@]5(C)C[C@@H](O)C(=O)C(C)(C)[C@@H]5CC[C@]43C)[C@@H]2[C@]1(C)O
inhibition in vivo at 100 mg/kg (Mus musculus [3]): 78.4% | inhibition in vivo at 100 mg/kg (Mus musculus [4]): 76.8% | IC50 (Hepatocyte [5]): 46.7 µM | IC50 (Hepatocyte [6]): 46.7 µM

C[C@H]1O[C@@H](O[C@H]2CC[C@@]3(C)[C@@H](CC[C@]4(C)[C@@H]3C=C[C@]35OC[C@@]6(CCC(C)(C)C[C@H]63)[C@@H](O)C[C@]54C)[C@]2(C)CO)[C@H](O[C@@H]2O[C@H](CO)[C@@H](O)[C@H](O)[C@H]2O)[C@@H](O[C@@H]2O[C@H](CO)[C@@H](O)[C@H](O)[C@H]2O)[C@H]1O [BUDDLEJASAPONIN IV]
Activity (Hepatocyte [7]): 74.96%

CC1(C)CC[C@]2(C)CC[C@]3(C)C(=CC[C@@H]4[C@@]5(C)CCC(=O)C(C)(C)[C@@H]5C(O)C[C@]43C)[C@@H]2C1 (stereo not given in full)
Activity (Mus musculus [8]): 55.3% | Activity (Mus musculus [9]): 40.6% | Activity (Mus musculus [10]): 24.8% | Activity (Mus musculus [11]): 45% | Activity (Mus musculus [12]): 51.3% | Activity (Mus musculus [13]): 45.3% | Activity (Mus musculus [14]): 38.8% | Activity (Mus musculus [15]): 36.4%

C[C@H]1[C@H](C)CC[C@]2(C(=O)O)CC[C@]3(C)C(=CC[C@@H]4[C@@]5(C)CC[C@H](O)C(C)(C)[C@@H]5CC[C@]43C)[C@H]12 [URSOLIC ACID]
Activity (Huh-7 [16]): 2.37 mg | Activity (Huh-7 [17]): 37.5% | Activity (Huh-7 [18]): 37.5%

C[C@H]1[C@H](C)CC[C@]2(C(=O)O)CC[C@]3(C)C(=CC[C@@H]4[C@@]5(C)CC(=O)[C@H](O)[C@@](C)(CO)[C@@H]5CC[C@]43C)[C@H]12
Activity (Mus musculus [19]): 54.3% | Activity (Mus musculus [20]): 49%

C[C@H]1[C@H](C)CC[C@]2(C)CC[C@]3(C)C(=CC[C@@H]4[C@@]5(C)CC[C@H](O)C(C)(C)[C@@H]5CC[C@]43C)[C@H]12
Activity (Mus musculus [21]): 40.22 U/ml

CC1(C)CC[C@]2(C(=O)O[C@@H]3O[C@H](CO[C@@H]4O[C@H](CO)[C@@H](O)[C@H](O)[C@H]4O)[C@@H](O)[C@H](O)[C@H]3O)CC[C@]3(C)C(=CC[C@@H]4[C@@]5(C)CCC(O[C@@H]6OC[C@H](O)[C@H](O)[C@H]6O)[C@@](C)(CO)[C@@H]5CC[C@]43C)[C@@H]2C1 (stereo not given in full)
Activity (Hepatocyte [22]): 161.4 U/L | Activity (Hepatocyte [23]): 9.22 nmol/mg | Activity (Hepatocyte [24]): 5.3 mg/g | Activity (Hepatocyte [25]): 82.1 U/L | Activity (Hepatocyte [26]): 167.5 U/L

C=C(C)[C@@H]1CC[C@]2(C(=O)O)CC[C@]3(C)[C@H](CC[C@@H]4[C@@]5(C)CC[C@H](O)C(C)(C)[C@@H]5CC[C@]43C)[C@@H]12 [BETULINIC ACID]
Activity (Hepatocyte [27]): 39.2% | Activity (Mus musculus [28]): 52.7% | Activity (Hepatocyte [29]): 23% | Activity (Hepatocyte [30]): 26.1%
